# Earlier results as cited in patent publication US20160331866A1, “TISSUE REGENERATION MEMBRANE FOR REPAIR AND REGENERATION OF PERIPHERAL NERVE” (NATIONAL CHENG KUNG UNIVERSITY, priority 2015, published 2016).
# Settings: conventionally oral dose form
row,concentration of the active ingredient in the blood,Compound
1,832 to 1660 µM,"CC(=O)Oc1ccccc1C(=O)O [aspirin, acetylsalicylic acid]"
2,20 ng/mL,CC(C)(O)c1ccccc1CC[C@@H](SCC1(CC(=O)O)CC1)c1cccc(/C=C/c2ccc3ccc(Cl)cc3n2)c1 [Montelukast]
3,8.46 to 25.38 µM,CC(c1cc2ccccc2s1)N(O)C(N)=O (stereo not shown) [Zileuton]
4,160 µM,COc1ccc2c(c1)c(CC(=O)O)c(C)n2C(=O)c1ccc(Cl)cc1 [Indomethacin]
